Results published in patent publication US9932331B2, “Phenyl tetrahydroisoquinoline compound substituted with heteroaryl” (TAISHO PHARMACEUTICAL CO., LTD, priority 2014, dated 2018).
Structures can show the parent of a compound that is named as a salt.

Assays:
[1] = target: T1, human NHE3 (Homo sapiens, UniProt P48764); experiment: NHE3 inhibition test (recovery of intracellular pH in cell line stably expressing human NHE3); assay type: cell-based; conditions: OK cells deficient in endogenous NHE stably expressing human NHE3; BCECF fluorescence, initial rate of pH recovery; read-out: human NHE3 inhibitory activity IC50
T1 sequence (P48764 26-834): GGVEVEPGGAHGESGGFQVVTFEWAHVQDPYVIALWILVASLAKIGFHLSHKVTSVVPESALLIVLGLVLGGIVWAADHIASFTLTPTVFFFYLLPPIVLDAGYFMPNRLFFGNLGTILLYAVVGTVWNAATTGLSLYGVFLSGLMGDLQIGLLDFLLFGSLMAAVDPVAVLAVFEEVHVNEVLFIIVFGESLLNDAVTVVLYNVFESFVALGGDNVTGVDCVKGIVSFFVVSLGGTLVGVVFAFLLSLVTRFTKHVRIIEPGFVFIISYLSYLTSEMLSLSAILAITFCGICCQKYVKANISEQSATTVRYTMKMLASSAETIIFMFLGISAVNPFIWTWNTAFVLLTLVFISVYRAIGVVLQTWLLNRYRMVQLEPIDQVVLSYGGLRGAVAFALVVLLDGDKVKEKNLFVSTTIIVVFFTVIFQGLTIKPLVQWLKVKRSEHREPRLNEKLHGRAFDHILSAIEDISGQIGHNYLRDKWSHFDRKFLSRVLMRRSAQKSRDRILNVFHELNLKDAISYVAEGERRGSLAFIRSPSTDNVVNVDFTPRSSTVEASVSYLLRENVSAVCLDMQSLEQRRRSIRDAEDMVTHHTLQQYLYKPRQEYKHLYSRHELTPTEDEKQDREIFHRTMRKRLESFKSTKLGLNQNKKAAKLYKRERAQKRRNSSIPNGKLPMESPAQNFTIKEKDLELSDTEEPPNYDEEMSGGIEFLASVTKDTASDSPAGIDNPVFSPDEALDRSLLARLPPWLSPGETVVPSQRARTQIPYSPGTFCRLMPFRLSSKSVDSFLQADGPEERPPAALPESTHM
Method in brief: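 IC50 is the concentration halving the initial rate of Na-triggered intracellular pH recovery, tracked by BCECF fluorescence, in NH4Cl-acidified cells. Cells: NHE-deficient OK line stably transfected with human NHE3; compound added in Na-free pH 7.4 buffer.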

[2] = system: SD rat; experiment: 32P-phosphate oral loading test using SD rat (phosphorus absorption inhibitory effect); assay type: in vivo; conditions: SD male rats, oral dose 3 mg/kg, plasma radioactivity 30 minutes after 32P-phosphate solution, vs control group; for inhibition in vivo at 3 mg/kg: Rattus norvegicus, 0.5 h, read-out: Rate of inhibition of phosphate absorption
Experimental: Phosphorus Absorption Inhibitory Effect of the Compound of the Present Invention in ^32P-Phosphate Oral Loading Test Using SD Rat
8-week-old SD male rats (Japan SLC, Inc.) were used as laboratory animals. Each test compound was suspended or dissolved at a concentration of 0.2 mg/mL or 0.6 mg/mL in Japanese Pharmacopoeia water for injection (manufactured by Hikari Pharmaceutical Co., Ltd.) and orally administered to each rat at a dose of 5 ml/kg body weight. Japanese Pharmacopoeia water for injection was administered at the same dose as above to a control group. 5 minutes after the administration of the test compound or water for injection, a phosphate solution (1.3 mM NaH2PO4) containing 32P-phosphate (PerkinElmer Inc.) was administered thereto at a dose of 5 ml/kg. 30 minutes after the administration of the phosphate solution, blood was collected from the tail vein, and the blood sample was immediately mixed with EDTA-2K (manufactured by Dojindo Laboratories). Then, the mixture was centrifuged at 3000 rpm at 4° C. for 10 minutes to recover plasma.
The radioactivity in 100 μL of the plasma was measured using a liquid scintillation counter and used as a phosphate absorption count. The radioactivity in the plasma of the control group was used as a control, and the rate of inhibition of phosphate absorption was determined according to the following expression: Rate of inhibition of phosphate absorption (%)=(1−Phosphate absorption count of the test compound administration group/Phosphate absorption count of the control group)×100 (2) Results

Structure (SMILES): CN1Cc2c(Cl)cc(Cl)cc2[C@H](c2cccc(-c3cn(CCOCCOCCOCCOCCOCCNC(=O)Nc4ccc(NC(=O)NCCOCCOCCOCCOCCOCCn5cc(-c6cccc([C@@H]7CN(C)Cc8c(Cl)cc(Cl)cc87)c6)nn5)cc4)nn3)c2)C1 [Example 7-46, 1,1′-Benzene-1,4-diylbis {3-[17-(4-{3-[(4S)-6,8-dichloro-2-methyl-1,2,3,4-tetrahydroisoquinolin-4-yl]phenyl}-1H-1,2,3-triazol-1-yl)-3,6,9,12,15-pentaoxaheptadec-1-yl]urea}hydrochloride]
- IC50 [1]: 10.9 nM
- inhibition in vivo at 3 mg/kg [2]: 23%

Structure (SMILES): CN1Cc2c(Cl)cc(Cl)cc2[C@H](c2cccc(-c3cn(CCOCCOCCOCCOCCNC(=O)Nc4ccc(NC(=O)NCCOCCOCCOCCOCCn5cc(-c6cccc([C@@H]7CN(C)Cc8c(Cl)cc(Cl)cc87)c6)nn5)cc4)nn3)c2)C1 [Example 7-45, 1,1′-Benzene-1,4-diylbis {3-[14-(4-{3-[(4S)-6,8-dichloro-2-methyl-1,2,3,4-tetrahydroisoquinolin-4-yl]phenyl}-1H-1,2,3-triazol-1-yl)-3,6,9,12-tetraoxatetradec-1-yl]urea}hydrochloride]
- IC50 [1]: 5.7 nM
- inhibition in vivo at 3 mg/kg [2]: 29%

Structure (SMILES): CN1Cc2c(Cl)cc(Cl)cc2[C@H](c2cccc(-c3nnn(CCOCCOCCOCCNC(=O)NCCCCNC(=O)NCCOCCOCCOCCn4nnc(-c5cccc([C@@H]6CN(C)Cc7c(Cl)cc(Cl)cc76)c5)n4)n3)c2)C1 [Example 7-30, 1,1′-Butane-1,4-diylbis {3-[2-(2-{2-[2-(5-{3-[(4S)-6,8-dichloro-2-methyl-1,2,3,4-tetrahydroisoquinolin-4-yl]phenyl}-2H-tetrazol-2-yl)ethoxy]ethoxy}ethoxy)ethyl]urea}hydrochloride]
- IC50 [1]: 2.8 nM
- inhibition in vivo at 3 mg/kg [2]: 28%

Structure (SMILES): CN1Cc2c(Cl)cc(Cl)cc2[C@H](c2cccc(-c3cc(NCCOCCOCCOCCNC(=O)CCC(=O)NCCOCCOCCOCCNc4cc(-c5cccc([C@@H]6CN(C)Cc7c(Cl)cc(Cl)cc76)c5)ncn4)ncn3)c2)C1 [Example 8-12, N,N′-Bis{2-[2-(2-{2-[(6-{3-[(4S)-6,8-dichloro-2-methyl-1,2,3,4-tetrahydroisoquinolin-4-yl]phenyl}pyrimidin-4-yl)amino]ethoxy}ethoxy)ethoxy]ethyl}butanediamide hydrochloride]
- IC50 [1]: 6.2 nM
- inhibition in vivo at 3 mg/kg [2]: 6%

Structure (SMILES): CN1Cc2c(Cl)cc(Cl)cc2[C@H](c2cccc(-c3ccc(C(=O)NCCOCCOCCNC(=O)NCCCCNC(=O)NCCOCCOCCNC(=O)c4ccc(-c5cccc([C@@H]6CN(C)Cc7c(Cl)cc(Cl)cc76)c5)cn4)nc3)c2)C1 [Example 7-18, N,N′-(10,17-Dioxo-3,6,21,24-tetraoxa-9,11,16,18-tetraazahexacosane-1,26-diyl)bis(5-{3-[(4S)-6,8-dichloro-2-methyl-1,2,3,4-tetrahydroisoquinolin-4-yl]phenyl}pyridine-2-carboxamide) hydrochloride]
- IC50 [1]: 5.6 nM
- inhibition in vivo at 3 mg/kg [2]: 49%

Structure (SMILES): CN1Cc2c(Cl)cc(Cl)cc2[C@H](c2cccc(-c3nnn(CCOCCOCCNC(=O)NCCCCNC(=O)NCCOCCOCCn4nnc(-c5cccc([C@@H]6CN(C)Cc7c(Cl)cc(Cl)cc76)c5)n4)n3)c2)C1 [Example 7-9, 1,1′-Butane-1,4-diylbis[3-(2-{2-[2-(5-{3-[(4S)-6,8-dichloro-2-methyl-1,2,3,4-tetrahydroisoquinolin-4-yl]phenyl}-2H-tetrazol-2-yl)ethoxy]ethoxy}ethyl)urea]hydrochloride]
- IC50 [1]: 7.3 nM
- inhibition in vivo at 3 mg/kg [2]: 22%

Structure (SMILES): CN1Cc2c(Cl)cc(Cl)cc2[C@H](c2cccc(-c3cn(CCOCCOCCOCCNC(=O)NCCN(CCCCN(CCNC(=O)NCCOCCOCCOCCn4cc(-c5cccc([C@@H]6CN(C)Cc7c(Cl)cc(Cl)cc76)c5)nn4)C(N)=O)C(N)=O)nn3)c2)C1.O=CO [Example 7-42, 3,3′-Butane-1,4-diylbis {3-[16-(4-{3-[(4S)-6,8-dichloro-2-methyl-1,2,3,4-tetrahydroisoquinolin-4-yl]phenyl}-1H-1,2,3-triazol-1-yl)-4-oxo-8,11,14-trioxa-3,5-diazahexadec-1-yl]urea}formate]
- IC50 [1]: 5.5 nM
- Rate of inhibition of phosphate absorption [2]: 29%

Structure (SMILES): CN1Cc2c(Cl)cc(Cl)cc2[C@H](c2cccc(-c3cn(CCOCCOCCOCCNC(=O)[C@@H](O)[C@H](O)[C@H](O)[C@@H](O)C(=O)NCCOCCOCCOCCn4cc(-c5cccc([C@@H]6CN(C)Cc7c(Cl)cc(Cl)cc76)c5)nn4)nn3)c2)C1 [Example 6-8, (2R,3S,4R,5S)—N,N′-Bis[2-(2-{2-[2-(4-{3-[(4S)-6,8-dichloro-2-methyl-1,2,3,4-tetrahydroisoquinolin-4-yl]phenyl}-1H-1,2,3-triazol-1-yl)ethoxy]ethoxy}ethoxy)ethyl]-2,3,4,5-tetrahydroxyhexanediamide hydrochloride]
- IC50 [1]: 0.8 nM
- inhibition in vivo at 3 mg/kg [2]: 34%

Structure (SMILES): CN1Cc2c(Cl)cc(Cl)cc2[C@H](c2cccc(-c3cc(NCCOCCOCCOCCNC(=O)Nc4ccc(NC(=O)NCCOCCOCCOCCNc5cc(-c6cccc([C@@H]7CN(C)Cc8c(Cl)cc(Cl)cc87)c6)ncn5)cc4)ncn3)c2)C1 [Example 7-16, 1,1′-Benzene-1,4-diylbis(3-{2-[2-(2-{2-[(6-{3-[(4S)-6,8-dichloro-2-methyl-1,2,3,4-tetrahydroisoquinolin-4-yl]phenyl}pyrimidin-4-yl)amino]ethoxy}ethoxy)ethoxy]ethyl}urea) hydrochloride]
- IC50 [1]: 16.6 nM
- inhibition in vivo at 3 mg/kg [2]: 34%

Structure (SMILES): CN1Cc2c(Cl)cc(Cl)cc2[C@H](c2cccc(-c3ccnc(NCCOCCOCCNC(=O)NCCCCNC(=O)NCCOCCOCCNc4cc(-c5cccc([C@@H]6CN(C)Cc7c(Cl)cc(Cl)cc76)c5)ccn4)c3)c2)C1 [Example 7-4, 1,1′-Butane-1,4-diylbis {3-[2-(2-{2-[(4-{3-[(4S)-6,8-dichloro-2-methyl-1,2,3,4-tetrahydroisoquinolin-4-yl]phenyl}pyridin-2-yl)amino]ethoxy}ethoxy)ethyl]urea}pentahydrochloride]
- IC50 [1]: 8.4 nM
- inhibition in vivo at 3 mg/kg [2]: 27%

Structure (SMILES): CN1Cc2c(Cl)cc(Cl)cc2[C@H](c2cccc(-c3nnn(CCOCCOCCOCCOCCNC(=O)NCCCCNC(=O)NCCOCCOCCOCCOCCn4nnc(-c5cccc([C@@H]6CN(C)Cc7c(Cl)cc(Cl)cc76)c5)n4)n3)c2)C1 [Example 7-29, 1,1′-Butane-1,4-diylbis {3-[14-(5-{3-[(4S)-6,8-dichloro-2-methyl-1,2,3,4-tetrahydroisoquinolin-4-yl]phenyl}-2H-tetrazol-2-yl)-3,6,9,12-tetraoxatetradec-1-yl]urea}hydrochloride]
- IC50 [1]: 6.9 nM
- inhibition in vivo at 3 mg/kg [2]: 10%

Structure (SMILES): CN1Cc2c(Cl)cc(Cl)cc2[C@H](c2cccc(-c3cn(CCOCCOCCOCCOCCOCCNC(=O)[C@H](O)[C@@H](O)C(=O)NCCOCCOCCOCCOCCOCCn4cc(-c5cccc([C@@H]6CN(C)Cc7c(Cl)cc(Cl)cc76)c5)nn4)nn3)c2)C1 [Example 6-10, (2R,3R)—N,N′-Bis[17-(4-{3-[(4S)-6,8-dichloro-2-methyl-1,2,3,4-tetrahydroisoquinolin-4-yl]phenyl}-1H-1,2,3-triazol-1-yl)-3,6,9,12,15-pentaoxaheptadec-1-yl]-2,3-dihydroxybutanediamide hydrochloride]
- IC50 [1]: 6.2 nM
- inhibition in vivo at 3 mg/kg [2]: 38%

Structure (SMILES): CN1Cc2c(Cl)cc(Cl)cc2[C@H](c2cccc(-c3cn(CCOCCOCCNC(=O)NCCCCNC(=O)NCCOCCOCCn4cnc(-c5cccc([C@@H]6CN(C)Cc7c(Cl)cc(Cl)cc76)c5)c4)cn3)c2)C1 [Example 7-15, 1,1′-Butane-1,4-diylbis[3-(2-{2-[2-(4-{3-[(4S)-6,8-dichloro-2-methyl-1,2,3,4-tetrahydroisoquinolin-4-yl]phenyl}-1H-imidazol-1-yl)ethoxy]ethoxy}ethyl)urea]hydrochloride]
- IC50 [1]: 8.1 nM
- inhibition in vivo at 3 mg/kg [2]: 36%
